Assay results as given in PubChem BioAssay AID192 (DTP/NCI, 2004).
Values joined by “and” are separate entries in the source; they are usually repeats but may differ in a detail not shown here. Identical values can stand only once. Toxic doses and inconclusive results are not listed.

System: BDF1 mice, B16 melanoma ip, median survival T/C
Assay: NCI In Vivo Anticancer Drug Screen. Data for tumor model B16 Melanoma (intraperitoneal) in B6D2F1 (BDF1) mice
Conditions: endpoint: median survival time, higher = longer survival
Outline: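 Each result divides a survival or tumor-size measurement in the compound-treated group by the same measurement in the vehicle group.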

[1] = dose: 12.5 mg/kg/injection, schedule: Q01DX009 (ip), vehicle: saline
[2] = dose: 25.0 mg/kg/injection, schedule: Q01DX009 (ip), vehicle: saline
[3] = dose: 25.0 mg/kg/injection, schedule: Q01DX009 (ip), vehicle: Klucel (hydroxypropylcellulose) (HPC)
[4] = dose: 50.0 mg/kg/injection, schedule: Q01DX009 (ip), vehicle: Klucel (hydroxypropylcellulose) (HPC)

O=S(=O)(O)C(Nc1ccccc1)c1ccccc1 (stereo not given)
T/C (dose: 100.0 mg/kg/injection, schedule: Q01DX009 (ip), vehicle: saline sonified): 93 % of control
T/C (dose: 200.0 mg/kg/injection, schedule: Q01DX009 (ip), vehicle: saline sonified): 93 % of control
T/C (dose: 400.0 mg/kg/injection, schedule: Q01DX009 (ip), vehicle: saline sonified): 102 % of control

Cc1cc2cc3cc(C)c(N)cc3nc2cc1N
T/C (dose: 3.12 mg/kg/injection, schedule: Q01DX009 (ip), vehicle: saline with Tween-80): 116 % of control
T/C (dose: 6.25 mg/kg/injection, schedule: Q01DX009 (ip), vehicle: saline with Tween-80): 121 % of control
T/C (dose: 25.0 mg/kg/injection, schedule: Q01DX009 (ip), vehicle: saline with Tween-80): 119 % of control

COc1cccc2c1C(=O)c1c(O)c3c(c(O)c1C2=O)CC(O)(C(=O)CO)CC3OC1CC(N)C(O)C(C)O1 (stereo not given)
T/C (dose: 1.12 mg/kg/injection, schedule: Q01DX001 (ip), vehicle: water): 178 % of control
T/C (dose: 2.25 mg/kg/injection, schedule: Q01DX001 (ip), vehicle: water): 156 % of control and 212 % of control and 228 % of control
T/C (dose: 2.9 mg/kg/injection, schedule: Q01DX009 (ip), vehicle: saline): 195 % of control
T/C (dose: 4.2 mg/kg/injection, schedule: Q01DX001 (ip), vehicle: water): 178 % of control
T/C (dose: 4.32 mg/kg/injection, schedule: Q01DX004 (ip), vehicle: other): 152 % of control
T/C (dose: 4.5 mg/kg/injection, schedule: Q01DX001 (ip), vehicle: water): 161 % of control and 194 % of control and 273 % of control
T/C (dose: 6.9 mg/kg/injection, schedule: Q01DX001 (ip), vehicle: water): 183 % of control
T/C (dose: 7.2 mg/kg/injection, schedule: Q01DX004 (ip), vehicle: other): 152 % of control
T/C (dose: 9.0 mg/kg/injection, schedule: Q01DX001 (ip), vehicle: water): 203 % of control and 273 % of control and 277 % of control
T/C (dose: 9.4 mg/kg/injection, schedule: Q01DX001 (ip), vehicle: water): 189 % of control
T/C (dose: 10.0 mg/kg/injection, schedule: Q01DX009 (ip), vehicle: saline): 222 % of control and 298 % of control
T/C (dose: 11.4 mg/kg/injection, schedule: Q04DX003 (ip), vehicle: saline): 182 % of control
T/C (dose: 11.7 mg/kg/injection, schedule: Q01DX009 (ip), vehicle: saline): 267 % of control
T/C (dose: 12.0 mg/kg/injection, schedule: Q01DX004 (ip), vehicle: other): 159 % of control
T/C (dose: 15.0 mg/kg/injection, schedule: Q01DX001 (ip), vehicle: water): 108 % of control
T/C (dose: 18.0 mg/kg/injection, schedule: Q01DX001 (ip), vehicle: water): 203 % of control and 250 % of control and 273 % of control
T/C (dose: 18.75 mg/kg/injection, schedule: Q01DX001 (ip), vehicle: water): 235 % of control
T/C (dose: 18.8 mg/kg/injection, schedule: Q01DX001 (ip), vehicle: water): 200 % of control
T/C (dose: 19.2 mg/kg/injection, schedule: Q01DX001 (ip), vehicle: water): 209 % of control
T/C (dose: 20.0 mg/kg/injection, schedule: Q01DX009 (ip), vehicle: saline): 289 % of control and 314 % of control
T/C (dose: 22.8 mg/kg/injection, schedule: Q04DX003 (ip), vehicle: saline): 236 % of control
T/C (dose: 23.4 mg/kg/injection, schedule: Q01DX009 (ip), vehicle: saline): 165 % of control and 200 % of control
T/C (dose: 30.0 mg/kg/injection, schedule: Q01DX001 (ip), vehicle: water): 116 % of control
T/C (dose: 32.0 mg/kg/injection, schedule: Q01DX001 (ip), vehicle: other): 164 % of control
T/C (dose: 36.0 mg/kg/injection, schedule: Q01DX001 (ip), vehicle: water): 203 % of control
T/C (dose: 37.5 mg/kg/injection, schedule: Q01DX001 (ip), vehicle: water): 226 % of control and 280 % of control
T/C (dose: 40.0 mg/kg/injection, schedule: Q01DX009 (ip), vehicle: saline): 287 % of control
T/C (dose: 45.6 mg/kg/injection, schedule: Q04DX003 (ip), vehicle: saline): 150 % of control and 276 % of control
T/C (dose: 46.8 mg/kg/injection, schedule: Q01DX009 (ip), vehicle: saline): 172 % of control
T/C (dose: 60.0 mg/kg/injection, schedule: Q01DX001 (ip), vehicle: water): 114 % of control
T/C (dose: 72.0 mg/kg/injection, schedule: Q01DX001 (ip), vehicle: water): 277 % of control
T/C (dose: 75.0 mg/kg/injection, schedule: Q01DX001 (ip), vehicle: water): 314 % of control and 334 % of control
T/C (dose: 91.2 mg/kg/injection, schedule: Q04DX003 (ip), vehicle: saline): 157 % of control and 276 % of control
T/C (dose: 150.0 mg/kg/injection, schedule: Q01DX001 (ip), vehicle: water): 185 % of control and 315 % of control

CN1CCCCC1CCN1c2ccccc2Sc2ccc(Cl)cc21 (stereo not given)
T/C (dose: 1.56 mg/kg/injection, schedule: Q01DX009 (ip), vehicle: saline): 109 % of control
T/C (dose: 3.12 mg/kg/injection, schedule: Q01DX009 (ip), vehicle: saline): 102 % of control
T/C (dose: 6.25 mg/kg/injection, schedule: Q01DX009 (ip), vehicle: saline): 100 % of control
T/C [1]: 103 % of control
T/C [2]: 94 % of control

FC(F)(F)c1ccc2nc(CI)c(CI)nc2c1
T/C (dose: 6.25 mg/kg/injection, schedule: Q01DX009 (ip), vehicle: Klucel (hydroxypropylcellulose) (HPC)): 110 % of control
T/C (dose: 12.5 mg/kg/injection, schedule: Q01DX009 (ip), vehicle: Klucel (hydroxypropylcellulose) (HPC)): 93 % of control
T/C [3]: 96 % of control
T/C [4]: 93 % of control

NC(=S)N/N=C/c1ccc(O)cn1
T/C (dose: 9.4 mg/kg/injection, schedule: Q01DX009 (ip), vehicle: saline with Tween-80): 103 % of control
T/C [1]: 108 % of control
T/C (dose: 18.8 mg/kg/injection, schedule: Q01DX009 (ip), vehicle: saline with Tween-80): 102 % of control and 119 % of control and 121 % of control
T/C [2]: 110 % of control
T/C (dose: 37.5 mg/kg/injection, schedule: Q01DX009 (ip), vehicle: saline with Tween-80): 109 % of control and 111 % of control and 120 % of control
T/C (dose: 50.0 mg/kg/injection, schedule: Q01DX009 (ip), vehicle: saline): 113 % of control and 122 % of control
T/C (dose: 75.0 mg/kg/injection, schedule: Q01DX009 (ip), vehicle: saline with Tween-80): 114 % of control and 121 % of control and 124 % of control
T/C (dose: 100.0 mg/kg/injection, schedule: Q01DX009 (ip), vehicle: saline): 115 % of control and 120 % of control
T/C (dose: 150.0 mg/kg/injection, schedule: Q01DX009 (ip), vehicle: saline with Tween-80): 105 % of control and 115 % of control

O=[N+]([O-])c1ccc2c(N=Nc3ccc4ccccc4c3O)c(O)cc(S(=O)(=O)O)c2c1
T/C (dose: 37.5 mg/kg/injection, schedule: Q01DX009 (ip), vehicle: Klucel (hydroxypropylcellulose) (HPC)): 94 % of control
T/C (dose: 75.0 mg/kg/injection, schedule: Q01DX009 (ip), vehicle: Klucel (hydroxypropylcellulose) (HPC)): 98 % of control

CCCCCCCCC(=O)N(C)OC
T/C (dose: 3.13 mg/kg/injection, schedule: Q04DX003 (ip), vehicle: saline): 107 % of control
T/C (dose: 6.25 mg/kg/injection, schedule: Q04DX003 (ip), vehicle: saline): 121 % of control
T/C (dose: 12.5 mg/kg/injection, schedule: Q04DX003 (ip), vehicle: saline): 105 % of control

CCCCCCCCCC(O)CCCC (stereo not given)
T/C [3]: 108 % of control
T/C [4]: 105 % of control
T/C (dose: 100.0 mg/kg/injection, schedule: Q01DX009 (ip), vehicle: Klucel (hydroxypropylcellulose) (HPC)): 86 % of control

COc1c(OC(C)=O)cc2c(OC(C)=O)c1CC(C)CC(OC)C(O)C(C)/C=C(\C)C(OC(N)=O)C(OC)/C=C\C=C(/C)C(=O)N2 (stereo not given)
T/C (dose: 12.5 mg/kg/injection, schedule: Q01DX005 (ip), vehicle: other): 97 % of control
T/C (dose: 25.0 mg/kg/injection, schedule: Q01DX005 (ip), vehicle: other): 98 % of control
T/C (dose: 50.0 mg/kg/injection, schedule: Q01DX005 (ip), vehicle: other): 97 % of control
T/C (dose: 100.0 mg/kg/injection, schedule: Q01DX005 (ip), vehicle: other): 101 % of control
T/C (dose: 200.0 mg/kg/injection, schedule: Q01DX005 (ip), vehicle: other): 94 % of control

CC1OC(OC2CC(O)(C(=O)CO)Cc3c(O)c4c(c(O)c32)C(=O)c2ccccc2C4=O)CC(N)C1O (stereo not given)
T/C (dose: 0.1 mg/kg/injection, schedule: Q01DX001 (ip), vehicle: water): 102 % of control
T/C (dose: 130.0 micrograms/kg/injection, schedule: Q01DX004 (ip), vehicle: other): 121 % of control
T/C (dose: 216.0 micrograms/kg/injection, schedule: Q04DX003 (ip), vehicle: water): 182 % of control
T/C (dose: 600.0 micrograms/kg/injection, schedule: Q01DX004 (ip), vehicle: other): 114 % of control
T/C (dose: 600.0 micrograms/kg/injection, schedule: Q04DX003 (ip), vehicle: water): 150 % of control and 283 % of control
T/C (dose: 1000.0 micrograms/kg/injection, schedule: Q04DX003 (ip), vehicle: water): 154 % of control and 211 % of control

COc1cccc2c1C(=O)c1c(O)c3c(c(O)c1C2=O)C[C@@](O)(C(C)=O)C[C@@H]3OC1CC(N(Cc2ccccc2)Cc2ccccc2)C(O)C(C)O1 (stereo not given in full)
T/C (dose: 12.5 mg/kg/injection, schedule: Q01DX001 (ip), vehicle: water): 103 % of control
T/C (dose: 25.0 mg/kg/injection, schedule: Q01DX001 (ip), vehicle: water): 113 % of control
T/C (dose: 100.0 mg/kg/injection, schedule: Q01DX001 (ip), vehicle: water): 150 % of control
